Reference: ChEMBL document CHEMBL6121062, “Discovery, Optimization, and Preclinical Pharmacology of EP652, a METTL3 Inhibitor with Efficacy in Liquid and Solid Tumor Models” (J Med Chem, 2025)

Assays:
Kasumi 1 = assay: Antiproliferative activity against human Kasumi 1 cells assessed as inhibition of cell viability incubated for 72 hrs by ATPlite assay; assay type: functional, cell-based; conditions: Kasumi 1, 72 h
[1] = Unbound clearance in Sprague-Dawley rat at 1 mg/kg/day, iv measured for 24 hrs by LC-MS/MS analysis; assay type: ADME, organism-based; conditions: in vivo
[2] = Unbound AUC in Sprague-Dawley rat at 1 mg/kg/day, iv measured for 24 hrs by LC-MS/MS analysis; assay type: ADME, organism-based; conditions: in vivo
[3] = Lipophilicity, logD of compound in 1-octanol/PBS at pH 7.4 incubated for 24 hrs by HPLC analysis; assay type: physicochemical
METTL3/METTL14 [4] = molecular target: T1, METTL3/METTL14 (Homo sapiens, UniProt Q86U44); assay: Displacement of [3H]-SAM from METTL3/METTL14 (unknown origin) using 5'biotinylated-UACACUCGAUCUGGACUAAAGGUGCUC-3' RNA as substrate preincubated for 10 mins followed by substrate/[3H]-SAM addition measured after 90 mins by SPA; assay type: protein-complex assay
[5] = Unbound fraction in Sprague-Dawley rat plasma at 1 mg/kg/day, iv measured for 24 hrs by LC-MS/MS analysis; assay type: ADME, organism-based; conditions: in vivo
NCI-H1650 = assay: Growth inhibition of human NCI-H1650 cells spheroid model; assay type: functional, cell-based
SK-OV-3 = assay: Antiproliferative activity against human SK-OV-3 cells assessed as inhibition of cell viability incubated for 72 hrs by ATPlite assay; assay type: functional, cell-based; conditions: SK-OV-3, 72 h
METTL3/METTL14 [6] = molecular target: T1, METTL3/METTL14; assay: Inhibition of METTL3/METTL14-mediated m6A mRNA expression in human FaDu cells incubated for 24 hrs by LC-MS/MS analysis; assay type: cell-based
Rattus norvegicus = assay: In vivo inhibition of METTL3/METTL14-mediated m6A mRNA expression in PBMC of rat; assay type: functional, organism-based; conditions: dose 3-30 mg/kg
MV4-11 = assay: Antiproliferative activity against human MV4-11 cells assessed as inhibition of cell viability incubated for 72 hrs by ATPlite assay; assay type: functional, cell-based; conditions: MV4-11, 72 h
METTL3/METTL14 [7] = molecular target: T1, METTL3/METTL14; assay: Inhibition of METTL3/METTL14-mediated m6A mRNA expression in human A549 cells incubated for 24 hrs by LC-MS/MS analysis; assay type: cell-based
[8] = In vivo inhibition of METTL3/METTL14-mediated m6A mRNA expression in PBMC of rat at 3 to 30 mg/kg relative to control; assay type: functional; conditions: dose 3-30 mg/kg
METTL3/METTL14 [9] = molecular target: T1, METTL3/METTL14; assay: Inhibition of METTL3/METTL14-mediated m6A mRNA expression in human Kasumi 1 cells incubated for 24 hrs by LC-MS/MS analysis; assay type: cell-based
A549 = assay: Antiproliferative activity against human A549 cells assessed as inhibition of cell viability incubated for 72 hrs by ATPlite assay; assay type: functional, cell-based; conditions: A549, 72 h
Caov-3 cell line = assay: Antiproliferative activity against human Caov-3 cells assessed as inhibition of cell viability incubated for 72 hrs by ATPlite assay; assay type: functional, cell-based; conditions: Caov-3, 72 h
METTL3/METTL14 [10] = molecular target: T1, METTL3/METTL14; assay: Inhibition of METTL3/METTL14-mediated m6A mRNA expression in human Calu-6 cells incubated for 24 hrs by LC-MS/MS analysis; assay type: cell-based
METTL3/METTL14 [11] = molecular target: T1, METTL3/METTL14; assay: Inhibition of METTL3/METTL14-mediated m6A mRNA expression in human MV4-11 cells incubated for 24 hrs by LC-MS/MS analysis; assay type: cell-based
[12] = Unbound AUC in mouse at 30 mg/kg, ip; assay type: ADME, organism-based; conditions: in vivo
METTL3/METTL14 [13] = molecular target: T1, METTL3/METTL14; assay: Inhibition of METTL3/METTL14-mediated m6A mRNA expression in human SK-OV-3 cells incubated for 24 hrs by LC-MS/MS analysis; assay type: cell-based
FaDu = assay: Antiproliferative activity against human FaDu cells assessed as inhibition of cell viability incubated for 72 hrs by ATPlite assay; assay type: functional, cell-based
Calu-6 = assay: Antiproliferative activity against human Calu-6 cells assessed as inhibition of cell viability incubated for 72 hrs by ATPlite assay; assay type: functional, cell-based; conditions: Calu-6, 72 h
Cytochrome P450 3A4 = Cytochrome P450 3A4 (Homo sapiens, UniProt P08684); assay: Inhibition of CYP3A4 (unknown origin); assay type: ADME
[14] = Half life in rat liver microsomes; assay type: ADME, Microsome

T1 sequence (Q86U44 whole entry): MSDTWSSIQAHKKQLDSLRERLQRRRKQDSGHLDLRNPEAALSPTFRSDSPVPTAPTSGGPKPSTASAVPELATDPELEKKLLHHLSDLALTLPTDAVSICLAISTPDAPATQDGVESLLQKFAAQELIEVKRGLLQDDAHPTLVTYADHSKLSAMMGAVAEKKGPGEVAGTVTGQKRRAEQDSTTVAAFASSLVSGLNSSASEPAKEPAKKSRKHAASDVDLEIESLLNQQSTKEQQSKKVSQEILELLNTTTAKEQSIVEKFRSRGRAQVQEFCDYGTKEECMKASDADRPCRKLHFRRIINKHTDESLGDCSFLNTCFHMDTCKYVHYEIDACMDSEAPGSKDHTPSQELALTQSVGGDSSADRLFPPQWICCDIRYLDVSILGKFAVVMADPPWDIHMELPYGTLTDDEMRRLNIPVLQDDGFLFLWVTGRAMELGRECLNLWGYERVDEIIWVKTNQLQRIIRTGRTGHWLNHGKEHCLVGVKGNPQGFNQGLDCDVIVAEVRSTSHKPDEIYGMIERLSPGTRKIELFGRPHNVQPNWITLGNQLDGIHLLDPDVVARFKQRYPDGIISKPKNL
T1 sequence (Q9HCE5 whole entry, further chain): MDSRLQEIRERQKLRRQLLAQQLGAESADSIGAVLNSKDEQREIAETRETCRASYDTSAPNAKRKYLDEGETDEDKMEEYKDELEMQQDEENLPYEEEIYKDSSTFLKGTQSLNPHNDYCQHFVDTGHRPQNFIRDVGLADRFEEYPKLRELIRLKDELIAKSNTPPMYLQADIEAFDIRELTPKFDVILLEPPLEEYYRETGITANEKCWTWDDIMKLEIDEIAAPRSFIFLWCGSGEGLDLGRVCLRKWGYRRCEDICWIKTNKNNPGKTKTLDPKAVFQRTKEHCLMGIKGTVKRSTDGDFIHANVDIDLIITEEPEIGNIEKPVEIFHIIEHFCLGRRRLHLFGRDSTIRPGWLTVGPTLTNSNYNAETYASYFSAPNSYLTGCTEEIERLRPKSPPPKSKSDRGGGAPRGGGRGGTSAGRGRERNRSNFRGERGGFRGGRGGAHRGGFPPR
Cytochrome P450 3A4, sequence (P08684 whole entry): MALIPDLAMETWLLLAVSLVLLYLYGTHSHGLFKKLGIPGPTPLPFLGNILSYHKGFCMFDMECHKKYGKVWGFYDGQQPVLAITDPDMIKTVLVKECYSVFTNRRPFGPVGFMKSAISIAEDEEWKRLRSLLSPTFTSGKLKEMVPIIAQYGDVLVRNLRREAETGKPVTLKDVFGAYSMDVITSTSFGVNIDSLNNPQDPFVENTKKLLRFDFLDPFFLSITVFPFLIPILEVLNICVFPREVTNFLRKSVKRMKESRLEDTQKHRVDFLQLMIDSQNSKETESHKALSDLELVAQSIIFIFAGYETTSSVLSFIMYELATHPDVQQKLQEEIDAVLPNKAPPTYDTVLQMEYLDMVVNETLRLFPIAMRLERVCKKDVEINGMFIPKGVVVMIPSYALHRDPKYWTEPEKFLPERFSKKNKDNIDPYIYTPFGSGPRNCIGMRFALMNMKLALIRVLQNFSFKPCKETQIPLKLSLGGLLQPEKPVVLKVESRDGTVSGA

CL free [1] [mL/min/kg] | fAUC [2] [µM·min] | logD at 24 h [3] | IC50 (METTL3/METTL14 [4]) [nM] | Fu [5] [%] | Compound | IC50 (Kasumi 1) [nM] | also measured
854 | 2.7 | 1.51 | 3 | 9.3 | COc1cncc(-c2cn(Cn3ccc(N4CCC[C@@H](NCC5CCC5)C4)cc3=O)nn2)c1 | 1100 | 
 |  | 1.9 | 31 | 11.2 | CCC(c1ccc(N2CCC[C@@H](NCC3CCC3)C2)nn1)n1cc(-c2cncc(OC)c2)nn1 (some centres not stated) | 6000 | 
596 | 5.7 | 1.47 | 6 | 11.1 | COc1cncc(-c2cn(Cc3ccc(N4CCC[C@@H](NCC5CCC5)C4)nn3)nn2)c1 | 1930 | 
2269 | 0.9 | 2.13 | 2 |  | COc1cc(-c2cn(C(C)n3ccc(N4CCC[C@@H](NCC5CCC5)C4)cc3=O)nn2)c2cn[nH]c2c1 (some centres not stated) | 437 | 
421 | 4.9 | 1.69 | 6 | 15.3 | COc1cncc(-c2cn(C(C)(C)c3ccc(N4CCC[C@@H](NCC5CCC5)C4)nn3)nn2)c1 | 2070 | 
1487 | 1.3 | 1.93 | 3 |  | CC(n1cc(-c2cncc(N3CCCC3)c2)nn1)n1ccc(N2CCC[C@@H](NCC3CC3)C2)cc1=O (some centres not stated) | 11 | 
1913 | 1 | 2.49 | 2 |  | CC(n1cc(-c2cncc(N3CCCC3)c2)nn1)n1ccc(N2CCC[C@@H](NCC3CCC3)C2)cc1=O (some centres not stated) | 7 | 
449 | 4.7 | 1.69 | 1 |  | CC(n1cc(-c2cncc(N(C)C)n2)nn1)n1ccc(N2CCC[C@@H](NCC3CCC3)C2)cc1=O (some centres not stated) | 35 | 
645 | 3.8 | 1.5 | 2 | 17.4 | COc1cncc(-c2cn([C@H](C)n3ccc(N4CCC[C@@H](NCC5CCC5)C4)cc3=O)nn2)c1 | 489 | 
529 | 3.3 | 1.8 | 2 |  | CC(n1cc(-c2cncc(-n3cccn3)c2)nn1)n1ccc(N2CCC[C@@H](NCC3CCC3)C2)cc1=O (some centres not stated) | 301 | 
 | 4.6 | 1.9 | 4 |  | O=C(NCc1ccc2cc(CNCC3CCC3)[nH]c2c1)c1cc(=O)n2ccccc2n1 | 1160 | IC50 (NCI-H1650): 2060 nM; IC50 (SK-OV-3): 371 nM; IC50 (METTL3/METTL14 [6]): 331 nM; inhibition (Rattus norvegicus): Dose-dependent-effect; IC50 (MV4-11): 7630 nM; IC50 (METTL3/METTL14 [7]): 264 nM; inhibition (INH) [8]: <=61%; IC50 (METTL3/METTL14 [9]): 138 nM; IC50 (A549): > 5000 nM; IC50 (Caov-3 cell line): 563 nM; IC50 (METTL3/METTL14 [10]): 169 nM; IC50 (METTL3/METTL14 [11]): 182 nM; fAUC [12]: 298.1 µM·min; IC50 (METTL3/METTL14 [13]): 134 nM; IC50 (FaDu): 2210 nM; IC50 (Calu-6): 1140 nM
 |  | 1.89 | 2 |  | COc1cc(-c2cn(Cc3ccc(N4CCC[C@@H](NCC5CCC5)C4)nn3)nn2)c2cn[nH]c2c1 | 629 | IC50 (METTL3/METTL14 [10]): 100 nM; IC50 (Cytochrome P450 3A4): ~800 nM; half-life [14]: 16 min
443 | 4.7 | 1.6 | 1 |  | C[C@@H](n1cc(-c2cncc(N3CCCC3)n2)nn1)n1ccc(N2CCC[C@@H](NCC3CC3)C2)cc1=O | 13 | 
423 | 5.3 | 1.62 | 4 | 14 | COc1cncc(-c2cn(C(C)c3ccc(N4CCC[C@@H](NCC5CCC5)C4)nn3)nn2)c1 (some centres not stated) | 904 | 
1112 | 2.1 | 2.07 | 2 |  | CCOc1cncc(-c2cn(C(C)n3ccc(N4CCC[C@@H](NCC5CCC5)C4)cc3=O)nn2)c1 (some centres not stated) | 302 | 
263 | 10.9 | 1.65 | 4 | 14.1 | COc1cncc(-c2cn(C(C)c3ccc(N4CCC[C@@H](NCC5CCC5)C4)cn3)nn2)c1 (some centres not stated) | 2100 | 
934 | 2.4 | 1.21 | 4 | 8.9 | COc1cncc(-c2cn(Cc3ccc(N4CCC[C@@H](NCC5CCC5)C4)cn3)nn2)c1 | 894 | 
